# From patent EP0536177B1, “THROMBIN INHIBITORS BASED ON THE AMINO ACID SEQUENCE OF HIRUDIN” (MAJESTY (HER) IN RIGHT OF CANADA as represented by THE …, priority 1990, dated 1991)
# Where no end group is shown, it is not given here.
# Tests used:
# [1] = biological target: T1, bovine α-thrombin (Bos taurus, UniProt P00735); experiment: Amidolytic (fluorogenic) assay of thrombin activity, hydrolysis of Tosyl-Gly-Pro-Arg-AMC; format: biochemical; conditions: mean of three determinations ± SEM, ni: not inhibited
# T1 construct: the enzyme (human or bovine α-thrombin 0.4 nM)
# [2] = biological target: T2, human α-thrombin (Homo sapiens, UniProt P00734); experiment: as above; format: biochemical; conditions: mean of three determinations ± SEM, ni: not inhibited
# T2 construct: the enzyme (human or bovine α-thrombin 0.4 nM)
# Procedure: Thrombin-catalyzed hydrolysis of Tos-Gly-Pro-Arg-pNA was monitored at 405 nm on a Varian Cary 2000 double beam spectrophotometer using substrate concentrations of 2.5, 3.5, 5 and 10 µM in a final volume of 1mL. The hydrolytic reactions were performed at 25°C in 0.1 M Tris-HCl buffer, pH 7.8, containing 0.1 M NaCl and 0.1% PEG 6000. The reactions were initiated by addition of the substrate dissolved in 0.1 M Tris-HCl buffer, pH 7.8 to a preincubated solution of enzyme (0.4 or 0.04 nM) and variable concentrations of inhibitor dissolved in the same buffer. Initial velocities were recorded and Ki values were determined graphically by weighted linear regression of Dixon plots in the case of competitive inhibition, or by the method of Baici (Baici, 1981) for hyperbolic inhibition. Fluorogenic assays were conducted using the same conditions and instrument as above operating in the fluorescence mode in the Ratio (λex=383 nm, λem=455 nm). Fluorescence intensities were calibrated with 7-amino-4-methyl coumarin solution of known concentration. The specificity of the synthetic peptides of the present invention for human α-thrombin may also be determined by comparing their relative inhibitory activities towards both human α-thrombin and bovine α-thrombin and trypsin by comparing K1 values obtained in the amidolytic assay of thrombin activity.
# [3] = system: rats; experiment: Antithrombotic activity in the arteriovenous shunt model; format: in vivo, rat; conditions: dose which causes a prolongation of the time until occlusion of the shunt by 15 min, 5 min after intravenous administration
# Procedure: The rat anaesthetized with urethane is fixed in supine position on a temperature-controlled heating plate. The right carotid artery and the left jugular vein are catheterized with short polyethylene catheters (Portex, PE 50). The catheters are filled with physiological saline solution and clamped. The two ends of the catheters are connected with a 2-cm glass capillary (internal diameter 1.0 mm) acting as a thrombogenic surface, 5 min after intravenous administration of the test substance or its solvent (control) the clamps occluding the arteriovenous shunt are opened. The blood flowing through the shunt leads to a rapid rise in temperature of the glass capillary from room temperature to body temperature. The temperature of the capillary serves as an indicator for the patency of the shunt. The temperature is measured by means of a NiCrNi-thermo-couple.
# Antithrombotic effect of P79 compared to recombinant hirudin in the arteriovenous shunt model in rats 5 min. after intravenous administration (n - number of animals used. Results are shown in Table II below. TABLE II
# [4] = Stability of polypeptides in plasma against proteolysis; format: in vitro ADME; conditions: incubation at 37°C in reconstituted normal human plasma with thromboplastin and calcium chloride, pH 7.8 (Figure 3)
# Procedure: The peptides of this invention were evaluated for in vitro plasma stability against proteolysis.
# 600 µg of peptide was mixed with 250 µl of reconstituted normal human plasma, 250 µl of thromboplastin, 600 µg of calcium chloride and 50 mM NaHPO4 buffer ph 7.8 to a final volume of 900 µl.
# The mixture was incubated at 37°C and 100 µl aliquots were removed at designated time intervals. 20 µl of 10% trichloroacetic acid was added to individual aliquot and centrifuged at 12 X K for 10 minutes. The supernatant was injected on a C18 analytical column and chromatographed by standard elution procedure (i.e. at 60% 0.1% TFA/H2O to 0.1 TFA in CH3CN).
proteolysis [4],Substance,Ki [1],Ki [2],ED15 [3]
–,"TPKPQSHNDGD [P51, hirudin^45-55]",720 ± 130 nM,110 ± 3 nM,–
minimal or no proteolysis,"[D-Phe^45,Arg^47,ψ(COCH2)CH2CH2CO^47]hirudin^45-65 [P79]",–,–,0.42 mg/kg
